Assay results: US20260256741A1, “ANTICANCER MALEIMIDE DERIVATIVES FOR USE WITH IMMUNE CHECKPOINT BLOCKADE” (BROWN UNIVERSITY, priority 2022, published 2026)

What was measured:
[1] = test system: SW480 MSS CRC cells; assay: Multicolor co-culture of SW480 CRC cells and TALL-104 T cells, EthD-1 dead cells; assay type: cell-based, human; conditions: for percentage of dead cells out of total cells (average, normalized): 24 hours, 1:1 E:T
Description: 10,000 HCT-116, SW480, or HT-29 cells were plated per well in a clear-bottom, black-walled 48-well tissue culture plate and were allowed to adhere overnight. […] CRC cells were labeled using CellTracker™ Green CMFDA (5-chloromethylfluorescein diacetate), immune cells (NK-92, TALL-104) were labeled using CellTracker™ Blue CMAC Dye (7-amino-4-chloromethylcoumarin), and ethidium homodimer-1 (EthD-1) was used as a marker of cell death (Invitrogen, Waltham, MA). 10× images were captured using a Nikon Ti-U Inverted Fluorescence Microscope and NIS-Elements F Package imaging software 3.22.00 Build 710 (Nikon Instruments Inc, USA). The number of red/green color cells in random fields was determined using thresholding and particle analysis in the Fiji modification (RRID: SCR_002285) of ImageJ and expressed as a dead/live cell ratio. Normalization was carried out by subtracting the percentage of cell death due to drug or vehicle control (DMSO) only from the percentage of dead cells observed in the co-culture of tumor and immune cells treated with the drug. At least 100 cells were evaluated per sample, with 3 independent replicates. Statistical analysis was done using GraphPad Prism 9 (RRID: SCR_002798).

[2] = test system: HT-29 GFP+ cells; assay: Single-color GFP+ immune cell co-culture, HT-29; assay type: cell-based, human; conditions: 48 hours
Description: 50,000 HT-29 or HCT 116 cells were seeded in a 12-well tissue culture plate and allowed to adhere overnight. They were then transduced with lentivirus containing the plasmid pLenti_CMV_GFP_Hygro [pLenti CMV GFP Hygro (656-4) was a gift from Eric Campeau & Paul Kaufman (Addgene viral prep #17446-LV; RRID: Addgene_17446)] at a multiplicity of infection of 10 with 8 μg/mL polybrene (hexadimethrine bromide [Cat #107689, Sigma Aldrich, St. Louis, MO, USA) for 24 hours before washing with PBS and replacing with fresh medium (49). The cells were then sorted for GFP-positivity using a BD FACSAria™ III Cell Sorter (RRID: SCR_016695).
5000 HT-29 GFP+ or HCT 116 GFP+ cells were plated per well in a clear-bottom, black-walled 96-well tissue culture plate and were allowed to adhere overnight. Cells were subsequently treated with DMSO, 5 μM elraglusib, and/or 5000 TALL-104 or NK-92 cells (for an effector-to-tumor ratio of 1:1) for 48 hours. Nine images were taken per well at 10× magnification using a Molecular Devices ImageXpress® Confocal HT.ai High-Content Imaging System and quantified for the number of GFP+ objects using the MetaXpress (RRID: SCR_016654) software (Molecular Devices, San Jose, CA, USA). 40× Images were also taken at 24 hours for representative images of cellular morphology changes. Statistical analysis was done using GraphPad Prism 9 (RRID: SCR_002798).

[3] = test system: KM12C cells; assay: Microarray gene expression analysis, KM12C; assay type: cell-based, human
Description: A total of 0.5×10^6 tumor cells (HCT-116, HT-29, KM12C) were plated in a 6-well plate and allowed to adhere overnight before 24-hour treatment as indicated. 1×10^6 immune cells (NK92, TALL-104) were plated and treated with elraglusib as indicated for 24 hours. RNA was isolated from cell pellets in batches of 6 using an RNeasy Plus Mini Kit (Cat #74134, Qiagen, Hilden, Germany). Acceptable RNA concentration and quality were verified with Nanodrop and Bioanalyzer measurements. GeneChip™ Human Transcriptome Array 2.0 assays were conducted according to manufacturer instructions in two batches using randomized samples to limit batch effects (Cat #902162, Applied Biosystems, Waltham, MA, USA). Applied Biosystems Transcriptomic Analysis Console (TAC) software (RRID: SCR_016519) was used to calculate fold changes in gene expression relative to the untreated control cells. Values were considered statistically significant for p values <0.05.

[4] = test system: TALL-104 cells; assay: 10x single-cell sequencing, TALL-104; assay type: cell-based, human; conditions: 1 μM, 24 hours vs DMSO
Description: Single cells were captured and 3′ single-cell gene expression libraries were conducted (Next GEM v3.1) using the 10× Genomics Chromium system by SingulOmics (SingulOmics, New York, NY, USA). Gene expression libraries were sequenced with ~200 million PE150 reads per sample on Illumina (RRID: SCR_016387) NovaSeq (Illumina, Inc., San Diego, CA, USA). After sequencing clean reads were then analyzed with human reference genome GRCh38 using Cell Ranger v6.1.2 ([RRID: SCR_017344],10× Genomics, Pleasanton, CA, USA). Data were analyzed and visualized using Loupe Browser ([RRID: SCR_018555], 10× Genomics, Pleasanton, CA, USA).

[5] = Tolerability in the CT-26 BALB/c model (body weight, blood count, serum chemistry); design: species or system BALB/c mice; conditions: mouse, in vivo
Description: The experimental in vivo protocol (Protocol #19-01-003) was approved by the Institutional Animal Care and Use Committee of Brown University (Providence, RI, USA). Six to 7 weeks-old female BALB/c mice (RRID: IMSR_JAX:000651) were purchased from Taconic. 50,000 cells were suspended in 50 μL ice-cold PBS and 50 μL Matrigel (Catalog # 354234, Corning, New York, USA), and 100 uL was injected subcutaneously into the rear flanks. Once tumor volume reached at least 100 mm^3, mice were randomly assigned to one of seven groups (3 mice/group): Control (isotype), elraglusib, elraglusib+Isotype, anti-PD-1, anti-PD-L1, elraglusib+anti-PD-1, and elraglusib+anti-PD-L1. All treatments were delivered by IP injection on the following dosing schedule: Isotype (70 mg/kg, twice a week), elraglusib (70 mg/kg, twice a week), anti-PD-1 (10 mg/kg, twice a week), anti-PD-L1 (10 mg/kg, twice a week). The treatment continued until mice developed signs of discomfort from excessive tumor growth. Mice were weighed once a week to monitor signs of drug toxicity. The length (L) and width (W) of the masses were measured three times per week with a digital caliper, and the tumor volume was calculated by applying the formula: 0.5LW2. Collection of whole blood and serum was performed by cardiac puncture and sent to Antech GLP for blood cell count and chemistry tests, or in-house cytokine profiling. […]

## Cn1cc(C2=C(c3coc4ccc(F)cc34)C(=O)NC2=O)c2cc3c(cc21)OCO3 [elraglusib, 3-(5-fluorobenzofuran-3-yl)-4-(5-methyl-5H-[1,3]dioxolo[4,5-f]indol-7-yl)-1H-pyrrole-2,5-dione]
[1]; co-culture with TALL-104, 5 μM
  percentage of dead cells out of total cells (average, normalized): 60%
[1]; co-culture with TALL-104, 10 μM
  percentage of dead cells out of total cells (average, normalized): 65%
[1]; drug only, no immune cells
  tumor cell death in SW480 monocultures: limited tumor cell death
[1]; tumor cells pre-treated with 5 μM for 24 hours, then 24-hour co-culture with TALL-104
  percentage of dead cells (average, normalized): 65%
[2]; 5 μM elraglusib and NK-92 vs immune cell only and DMSO only
  tumor cell death: increased tumor cell death
[2]; 5 μM elraglusib and TALL-104 vs drug-only or T cell-only
  tumor cell death: increased tumor cell death
[3]; 24 hours vs DMSO
  GZMA (granzyme A) gene expression fold change: 1.53 FC
  downregulated genes in VEGFA-VEGFR2 signaling pathway: 48
[3]; IC-50 concentration (1 μM), 24 hours, FC cutoff >1.5, <−1.5, p<0.05
  differentially expressed genes post-treatment: 1,032
[4]
  immune cell activation marker CD69 expression: increase
  immune cell chemoattractant CXCR4 expression: increase
  immunosuppressive marker CHI3L1 expression: decrease
[5]
  renal function (BUN, creatinine, electrolytes): maintained normal renal function
